# Measured values taken from PubChem BioAssay AID2060346 (Molecular Pharmacology Branch, DTP, NCI, 2025).
# Values joined by “and” are separate entries in the source; they are usually repeats but may differ in a detail not shown here. Equal values may be shown once.
# System: CN0375-F725-PDC multi-cell spheroids, viability
# Assay: Anticancer human tumor CN0375-F725-PDC patient-derived colon carcinoma cell line growth inhibition [TAK]
# Settings: for viability, T/C: stronger effect = lower value
# From the text: Combinatorial screen of targeted agents with TAK-243 and ipatasertib in multi-cell type tumor spheroids
# A high-throughput screen of multi-cell type tumor spheroids was designed to identify active combinations of targeted small molecules and TAK-243 or ipatasertib. Complex spheroids include a stromal component modeled by human endothelial cells (HUVEC) and fibroblasts modeled by human mesenchymal stem cells (MSCs). The concentration ranges selected for each drug and investigational agent were based upon clinically achievable concentrations if the clinical Cmax of the agent was known.
# Compounds. The drugs and investigational agents: TAK-243 (785004), ipatasertib (767898), everolimus (733504), selumetinib (741078), bortezomib (756655), trametinib (758246), ixazomib (758254), vemurafenib (761431), dabrafenib (764134), sapanisertib (764658), alpelisib (765974), and copanlisib (816437), were obtained from the National Cancer Institute (NCI) Developmental Therapeutics Program Chemical Repository. The FDA-approved anticancer drug set is available from the NCI Developmental Therapeutics Program. […] The stock solutions were prepared in dimethyl sulfoxide (DMSO, Sigma-Aldrich, St. Louis, MO, cat. D2650) at 800-fold the tested concentration and stored at -70 degrees C prior to their use. All drugs and investigational agents were tested over a range starting from a high concentration at or near the clinical Cmax and decreasing in half-log increments. If the clinical Cmax for an agent had not been determined, the highest concentration tested was 10 microM.
# NCI60 Cell Culture. NCI60 cell lines were obtained from the NCI Developmental Therapeutics Program Tumor Repository. For each lot of cells, the Repository performed Applied Biosystems AmpFLSTR Identifiler testing with PCR amplification to confirm consistency with the published Identifier STR profile for each cell line. Cells were kept in continuous culture for no more than 20 passages. The optimal seeding densities for each of the cell lines at each time point assessed were determined prior to performing the concentration response studies. Briefly, the NCI60 human tumor lines were grown as monolayers in RPMI 1640 medium supplemented with 10% FBS and 2 mmol/L L-glutamine.
# An additional 2 lines were from the NCI60 cell line panel including melanomas, MALME-3M and SK-MEL-2. Pooled donor human umbilical vein endothelial cells (HUVEC, Lonza, cat. CC-2519) and human mesenchymal stem cells (hMSC, Lonza, cat. PT-2501) were purchased from Lonza (Walkersville, MD).
# PDMR cell lines were grown in complete medium (DC medium): Dulbecco's modified Eagle's medium (DMEM)/F12 supplemented with 5% fetal bovine serum (FBS), 2 mM L-glutamine, 100 U/mL penicillin and 100 µg/ml streptomycin, 0.4 µg/ml hydrocortisone, 10 ng/ml epidermal growth factor (EGF) recombinant human protein, 24 µg/mL adenine, and 0.1 mg/mL primocin. During culture from frozen stock vials, PDMR cells were cultured in the same medium containing 10 µM Y-27632 (see Table 3). The PDCs were cultured in complete DMEM/F12 media without 10 microM Y-27632 dihydrochloride for at least two passages prior to the screen. The pooled donor HUVEC and hMSC were cultured in endothelial cell growth medium 2 (PromoCell, Heidelberg, Germany, cat. C-22011) and mesenchymal stem cell growth medium 2 (PromoCell, cat. C-28009), respectively. For all experiments, HUVEC and hMSC were used at passages </=5.
# For the pre-screen, cell seeding densities were determined from a titration spanning the range from 5,000 to 313 cells per well. The mct-spheroids including 60% malignant cells, 25% HUVEC and 15% MSC dispensed as a mixture into U-bottom Ultra-Low Attachment 384-well plates (Corning, NY)
# High-throughput Drug Combination Screening.
# Prior to their inoculation into 384-well plates, malignant cells, HUVEC, and hMSC were removed from T flasks using TrypLE express (Thermo Fisher Scientific, cat. 12605036) and harvested by centrifugation for 5 min at 233 x g. […]
# [1] = curve of first compound, second compound 0.3 µM
# [2] = curve of first compound, second compound 0.949 µM
# [3] = curve of first compound, second compound 3 µM
# [4] = curve of first compound, second compound 9.49 µM
# [5] = curve of first compound, second compound 30 µM
# [6] = second compound 0.3 µM, first compound 0.00316 µM
# [7] = second compound 0.3 µM, first compound 0.01 µM
# [8] = second compound 0.3 µM, first compound 0.0316 µM
# [9] = second compound 0.3 µM, first compound 0.1 µM
# [10] = second compound 0.949 µM, first compound 0.00316 µM
# [11] = second compound 0.949 µM, first compound 0.01 µM
# [12] = second compound 0.949 µM, first compound 0.0316 µM
# [13] = second compound 0.949 µM, first compound 0.1 µM
# [14] = second compound 3 µM, first compound 0.00316 µM
# [15] = second compound 3 µM, first compound 0.01 µM
# [16] = second compound 3 µM, first compound 0.0316 µM
# [17] = second compound 3 µM, first compound 0.1 µM
# [18] = second compound 9.49 µM, first compound 0.00316 µM
# [19] = second compound 9.49 µM, first compound 0.01 µM
# [20] = second compound 9.49 µM, first compound 0.0316 µM
# [21] = second compound 9.49 µM, first compound 0.1 µM
# [22] = second compound 30 µM, first compound 0.00316 µM
# [23] = second compound 30 µM, first compound 0.01 µM
# [24] = second compound 30 µM, first compound 0.0316 µM
# [25] = second compound 30 µM, first compound 0.1 µM
# 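Further: spheroids exposed to drugs for seven days.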
# 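Wherever viability, T/C is given: 100% = DMSO vehicle control wells.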
smiles,measurement,setting,value
CC(C)n1nc(-c2ccc3oc(N)nc3c2)c2c(N)ncnc21 + CC(C)NCC(C(=O)N1CCN(c2ncnc3c2C(C)CC3O)CC1)c1ccc(Cl)cc1,IC50,[1],> 100 nM
same,IC50,[2],> 100 nM
same,IC50,[3],> 100 nM
same,IC50,[4],76.5 nM
same,IC50,[5],24.3 nM
same,"viability, T/C","second compound 0.3 µM, first compound 0.000316 µM",108%
same,"viability, T/C","second compound 0.3 µM, first compound 0.001 µM",102%
same,"viability, T/C",[6],95.8%
same,"viability, T/C",[7],79.2%
same,"viability, T/C",[8],71.1%
same,"viability, T/C",[9],59.5%
same,"viability, T/C","second compound 0.949 µM, first compound 0.000316 µM",96.9%
same,"viability, T/C","second compound 0.949 µM, first compound 0.001 µM",99.5%
same,"viability, T/C",[10],89.7%
same,"viability, T/C",[11],80.3%
same,"viability, T/C",[12],68.3%
same,"viability, T/C",[13],57.5%
same,"viability, T/C","second compound 3 µM, first compound 0.000316 µM",90.6%
same,"viability, T/C","second compound 3 µM, first compound 0.001 µM",95.3%
same,"viability, T/C",[14],87.4%
same,"viability, T/C",[15],80.3%
same,"viability, T/C",[16],65.9%
same,"viability, T/C",[17],54.4%
same,"viability, T/C","second compound 9.49 µM, first compound 0.000316 µM",84.9%
same,"viability, T/C","second compound 9.49 µM, first compound 0.001 µM",91.4%
same,"viability, T/C",[18],82.6%
same,"viability, T/C",[19],77.3%
same,"viability, T/C",[20],60.3%
same,"viability, T/C",[21],46.9%
same,"viability, T/C","second compound 30 µM, first compound 0.000316 µM",67.7%
same,"viability, T/C","second compound 30 µM, first compound 0.001 µM",69.2%
same,"viability, T/C",[22],75.6%
same,"viability, T/C",[23],68.5%
same,"viability, T/C",[24],44.4%
same,"viability, T/C",[25],36.6%
COc1c(OCCCN2CCOCC2)ccc2c3n(c(=NC(=O)c4cnc(N)nc4)nc12)CCN3 + CC(C)NCC(C(=O)N1CCN(c2ncnc3c2C(C)CC3O)CC1)c1ccc(Cl)cc1,IC50,[1],247 nM
same,IC50,[2],211 nM
same,IC50,[3],206 nM
same,IC50,[4],154 nM
same,IC50,[5],84.3 nM
same,"viability, T/C",[6],103%
same,"viability, T/C",[7],88.3%
same,"viability, T/C",[8],81.1%
same,"viability, T/C",[9],61.7%
same,"viability, T/C","second compound 0.3 µM, first compound 0.316 µM",45.6%
same,"viability, T/C","second compound 0.3 µM, first compound 1 µM",34.7%
same,"viability, T/C",[10],100%
same,"viability, T/C",[11],91.8%
same,"viability, T/C",[12],80.1%
same,"viability, T/C",[13],61.3%
same,"viability, T/C","second compound 0.949 µM, first compound 0.316 µM",42.7%
same,"viability, T/C","second compound 0.949 µM, first compound 1 µM",37.6%
same,"viability, T/C",[14],98.8%
same,"viability, T/C",[15],83.1%
same,"viability, T/C",[16],78.5%
same,"viability, T/C",[17],60.4%
same,"viability, T/C","second compound 3 µM, first compound 0.316 µM",41.9%
same,"viability, T/C","second compound 3 µM, first compound 1 µM",33%
same,"viability, T/C",[18],92.7%
same,"viability, T/C",[19],80.2%
same,"viability, T/C",[20],69.9%
same,"viability, T/C",[21],55.5%
same,"viability, T/C","second compound 9.49 µM, first compound 0.316 µM",40.4%
same,"viability, T/C","second compound 9.49 µM, first compound 1 µM",34.8%
same,"viability, T/C",[22],76.2%
same,"viability, T/C",[23],70.5%
same,"viability, T/C",[24],62%
same,"viability, T/C",[25],47.8%
same,"viability, T/C","second compound 30 µM, first compound 0.316 µM",37.5%
same,"viability, T/C","second compound 30 µM, first compound 1 µM",32.6%
Cn1cnc2c(F)c(Nc3ccc(Br)cc3Cl)c(C(=O)NOCCO)cc21,"viability, T/C",compound 0.00949 µM,89.7% and 95.5%
same,"viability, T/C",compound 0.03 µM,79.8% and 82.5%
same,"viability, T/C",compound 0.0949 µM,64.8% and 61.1%
same,"viability, T/C",compound 0.3 µM,55.1% and 49.1%
same,"viability, T/C",compound 0.949 µM,40.8% and 41.4%
same,"viability, T/C",compound 3 µM,33.3% and 34.5%
same,IC50,curve of compound,420 nM and 267 nM
CC(C)n1nc(-c2ccc3oc(N)nc3c2)c2c(N)ncnc21,"viability, T/C",compound 0.000316 µM,109% and 106%
same,"viability, T/C",compound 0.001 µM,105% and 101%
same,"viability, T/C",compound 0.00316 µM,91.7% and 93.4%
same,"viability, T/C",compound 0.01 µM,85.5% and 83.8%
same,"viability, T/C",compound 0.0316 µM,73.1% and 76.7%
same,"viability, T/C",compound 0.1 µM,58.9% and 61.4%
same,IC50,curve of compound,> 100 nM
CC(C)(C)c1nc(-c2cccc(NS(=O)(=O)c3c(F)cccc3F)c2F)c(-c2ccnc(N)n2)s1,"viability, T/C",compound 0.0316 µM,126% and 115%
same,"viability, T/C",compound 0.1 µM,130% and 129%
same,"viability, T/C",compound 0.316 µM,126% and 133%
same,"viability, T/C",compound 1 µM,112% and 127%
same,"viability, T/C",compound 3.16 µM,104% and 119%
same,"viability, T/C",compound 10 µM,110% and 107%
same,IC50,curve of compound,> 10000 nM
CCCS(=O)(=O)Nc1ccc(F)c(C(=O)c2c[nH]c3ncc(-c4ccc(Cl)cc4)cc23)c1F,"viability, T/C",compound 0.316 µM,113% and 115%
same,"viability, T/C",compound 1 µM,122%
same,"viability, T/C",compound 3.16 µM,114% and 109%
same,"viability, T/C",compound 10 µM,75.1% and 65.5%
same,"viability, T/C",compound 31.6 µM,118% and 111%
same,"viability, T/C",compound 100 µM,101% and 111%
same,IC50,curve of compound,> 100000 nM
CC(C)NCC(C(=O)N1CCN(c2ncnc3c2C(C)CC3O)CC1)c1ccc(Cl)cc1 (configuration not stated),"viability, T/C",compound 0.3 µM,97.1% [middle of 10 runs]
same,"viability, T/C",compound 0.949 µM,93.7% [middle of 10 runs]
same,"viability, T/C",compound 3 µM,91.4% [middle of 10 runs]
same,"viability, T/C",compound 9.49 µM,84.7% [middle of 10 runs]
same,"viability, T/C",compound 30 µM,83.7% [middle of 10 runs]
same,IC50,"compound alone, run of 02/28/2020",> 30000 nM
same,IC50,"compound alone, run of 03/19/2020",> 30000 nM
Cc1nc(NC(=O)N2CCCC2C(N)=O)sc1-c1ccnc(C(C)(C)C(F)(F)F)c1 (configuration not stated),"viability, T/C",compound 0.0316 µM,102% and 105%
same,"viability, T/C",compound 0.1 µM,93.8% and 98.5%
same,"viability, T/C",compound 0.316 µM,92.2% and 85.6%
same,"viability, T/C",compound 1 µM,85.7% and 77.4%
same,"viability, T/C",compound 3.16 µM,68.3% and 65.6%
same,"viability, T/C",compound 10 µM,57.7% and 47.6%
same,IC50,curve of compound,> 10000 nM and 9170 nM
